Measured values published in patent US7297682B2, “Diphosphate salt of a 4″—substituted-9-deoxo-9 A—AZA—homoerythromycin derivatives and its pharmaceutical composition” (Pfizer Inc., priority 1999, dated 2007).
Where a name gives a salt, the structure may show the parent alone.

Columns and labels:
physchem = type: physicochemical; conditions: water
[1] = hygroscopicity: water uptake and water content versus relative humidity (VTI, Karl Fisher); type: physicochemical
Method: The crystalline diphosphate salt gradually absorbs water to about 13% at 87% relative humidity with a rapid uptake of water to about 48% occurring at about 90% relative humidity. Thermogravametric analysis on the diphosphate salt discloses that three waters are lost by about 75° C., a fourth water is lost by about 120° C., the fifth water is lost by about 170° C., and the final three waters are lost by about 200° C. The maximum number of water molecules necessary for the stabilization of the crystalline lattice appears to be about eight. Drying the diphosphate salt in about 70° C. in air or about 45° C. in a vacuum removed the water leaving a pseudomorph.
Drying in the VTI at 20-25° C. indicated a weight loss of 10%; the dried salt gradually adsorbed water to 15% at 85% RH (relative humidity), followed by a rapid uptake to 48% at 90% RH. At 90% RH, the compound deliquesced.
The mobility of the water within the crystalline lattice is directly related to the relative humidity of the environment the diphosphate salt comes in contact with. For example, at about 87% relative humidity, the compound contains about 13% water; at 60% relative humidity the compound contains about 8% water; and at 40% relative humidity the diphosphate salt contains about 5% water (all calculations by KF).
Both the liquid crystal and the crystalline form of the diphosphate were hygroscopic. When attempts were conducted in hydrophilic solvents, the addition of 4% to 5% (v/v) water to the amorphous slurry caused the compound to crystallize as an octahydate.

| solubility (physchem) [mg/mL] | water adsorbed (gradual) by dried salt ([1]; after drying in the VTI at 20-25° C., at 85% RH) [%] | rapid uptake of water by dried salt ([1]; after drying in the VTI at 20-25° C., at 90% RH) [%] | water content (by KF) ([1]; at 40% relative humidity) | water content (by KF) ([1]; at 60% relative humidity) | water absorbed (gradual) ([1]; at 87% relative humidity) | behaviour at high humidity ([1]; at 90% RH) | water content (by KF) ([1]; at about 87% relative humidity) | rapid uptake of water ([1]; at about 90% relative humidity) | hygroscopicity [1] | SMILES |
| --- | --- | --- | --- | --- | --- | --- | --- | --- | --- | --- |
| ~280 | 15 | 48 | about 5% | about 8% | about 13% | deliquesced | about 13% | about 48% |  | CCCNC[C@]1(O)C(C)OC(OC2C(C)C(=O)OC(CC)[C@@](C)(O)[C@H](O)[C@@H](C)NC[C@H](C)C[C@](C)(O)[C@H](OC3OC(C)CC(N(C)C)[C@H]3O)C2C)C[C@@]1(C)OC (stereo partly drawn) [crystalline diphosphate salt, (2R,3S,4R,5R,8R,10R,11R,12S,13S,14R)-13-[[2,6-dideoxy-3-C-methyl-3-O-methyl-4-C-[(propylamino)methyl]-α-L-ribo-hexopryanosyl]oxy]-2-ethyl-3,4,10-trihydroxy-3,5,8,10,12,14-hexamethyl-11-[[3,4,6-trideoxy-3-(dimethylamino)-β-D-xylo-hexopyranosyl]oxy]-1-oxa-6-azacyclopentadecan-15-one diphosphate] |
|  |  |  |  |  |  |  |  |  | hygroscopic | CCCNC[C@]1(O)C(C)OC(OC2C(C)C(=O)OC(CC)[C@@](C)(O)[C@H](O)[C@@H](C)NC[C@H](C)C[C@](C)(O)[C@H](OC3OC(C)CC(N(C)C)[C@H]3O)C2C)C[C@@]1(C)OC (stereo partly drawn) [liquid crystal, (2R,3S,4R,5R,8R,10R,11R,12S,13S,14R)-13-[[2,6-dideoxy-3-C-methyl-3-O-methyl-4-C-[(propylamino)methyl]-α-L-ribo-hexopryanosyl]oxy]-2-ethyl-3,4,10-trihydroxy-3,5,8,10,12,14-hexamethyl-11-[[3,4,6-trideoxy-3-(dimethylamino)-β-D-xylo-hexopyranosyl]oxy]-1-oxa-6-azacyclopentadecan-15-one diphosphate] |
